Source: ChEMBL document CHEMBL1201862, “PubChem BioAssay data set” (2004)
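Method: 48-hour compound exposure of cells in 96-well plates, five concentrations, linear interpolation of endpoints. The concentration for 50% growth inhibition is given as GI50.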 Calls of active or inactive are those of the source. Cut-off read from the data, not from the text of the source: active = GI50 up to about 1.1 µM and inactive = higher.

Key:
Assay in all cases: inhibition of tumour cell growth, NCI panel, 48 h
[1] = system: ACHN
[2] = system: HL-60
[3] = system: M19-MEL
[4] = system: NCI-H522
[5] = system: SK-MEL-28
[6] = system: U-251
[7] = system: SK-OV-3
[8] = system: UACC-257
[9] = system: NCI-H226
[10] = system: SNB-19
[11] = system: EKVX
[12] = system: CCRF-CEM
[13] = system: SF-539
[14] = system: SK-MEL-5
[15] = system: SF-295
[16] = system: SR
[17] = system: LXFL 529
[18] = system: UACC-62
[19] = system: SNB-75
[20] = system: HT-29
[21] = system: HCT-116
[22] = system: KM-20L2
[23] = system: COLO 205
[24] = system: OVCAR-8
[25] = system: NCI-H23
[26] = system: HCC 2998
[27] = system: SF-268
[28] = system: 786-0
[29] = system: Malme-3M
[30] = system: M14
[31] = system: HCT-15
[32] = system: SN12C
[33] = system: K562
[34] = system: A498
[35] = system: HOP-62
[36] = system: DLD-1
[37] = system: HOP-92
[38] = system: RPMI-8226
[39] = system: OVCAR-4
[40] = system: UO-31
[41] = system: XF498
[42] = system: SNB-78
[43] = system: HOP-18
[44] = system: DMS-273
[45] = system: DMS-114
[46] = system: MOLT-4
[47] = system: IGROV-1
[48] = system: SW-620
[49] = system: A549
[50] = system: RXF 393

CCOc1ccc(/C=C(\Cl)c2ccc(OC)cc2)cc1
GI50 [1]: > 100 µM (inactive)
GI50 [2]: 47.6 µM (inactive)
GI50 [3]: > 100 µM (inactive)
GI50 [4]: > 100 µM (inactive)
GI50 [5]: > 100 µM (inactive)
GI50 [6]: > 100 µM (inactive)
GI50 [7]: > 100 µM (inactive)
GI50 [8]: > 100 µM (inactive)
GI50 [9]: > 100 µM (inactive)
GI50 [10]: > 100 µM (inactive)
GI50 [11]: > 100 µM (inactive)
GI50 [12]: > 100 µM (inactive)
GI50 [13]: > 100 µM (inactive)
GI50 [14]: > 100 µM (inactive)
GI50 [15]: > 100 µM (inactive)
GI50 [16]: > 100 µM (inactive)
GI50 [17]: > 100 µM (inactive)
GI50 [18]: > 100 µM (inactive)
GI50 [19]: > 100 µM (inactive)
GI50 [20]: > 100 µM (inactive)
GI50 [21]: > 100 µM (inactive)
GI50 [22]: > 100 µM (inactive)
GI50 [23]: > 100 µM (inactive)
GI50 [24]: > 100 µM (inactive)
GI50 [25]: > 100 µM (inactive)
GI50 [26]: > 100 µM (inactive)
GI50 [27]: > 100 µM (inactive)
GI50 [28]: > 100 µM (inactive)
GI50 [29]: > 100 µM (inactive)
GI50 [30]: > 100 µM (inactive)
GI50 [31]: > 100 µM
GI50 [32]: > 100 µM (inactive)
GI50 [33]: > 100 µM (inactive)
GI50 [34]: 25.2 µM (inactive)
GI50 [35]: > 100 µM (inactive)
GI50 [36]: > 100 µM (inactive)
GI50 [37]: > 100 µM (inactive)
GI50 [38]: > 100 µM (inactive)
GI50 [39]: > 100 µM (inactive)
GI50 [40]: > 100 µM (inactive)
GI50 [41]: > 100 µM (inactive)
GI50 [42]: > 100 µM (inactive)
GI50 [43]: > 100 µM (inactive)
GI50 [44]: > 100 µM (inactive)
GI50 [45]: 78.7 µM (inactive)
GI50 [46]: > 100 µM (inactive)
GI50 [47]: > 100 µM (inactive)
GI50 [48]: > 100 µM (inactive)
GI50 [49]: > 100 µM (inactive)
GI50 [50]: > 100 µM (inactive)
